# Assay results published in patent US8552059B2, “Treatment of ischemic episodes and cerebroprotection through misoprostol” (The Board of Trustees of the Leland Stanford Junior …, priority 2009, dated 2013).
# Test system: murine middle cerebral artery occlusion-reperfusion (MCAO-RP) model of transient focal ischemia
# Assay: Middle cerebral artery occlusion-reperfusion (MCAO-RP), 90 min MCAO, misoprostol
# Assay type: in vivo, mouse
# Conditions: p<0.05
# Protocol: Focal cerebral ischemia was induced by 90 minutes of reversible right middle cerebral artery occlusion (MCAO) under isofluorane anesthesia followed by 22.5 hours or 72 hours of reperfusion and terminal histopathology, as previously described (McCullough et al., 2004). […] Mice were given 3 subcutaneous injections of either vehicle (hydroxypropyl-methyl cellulose; HPMC) or 1 mg/kg misoprostol in HPMC (1:100 misoprostol:HPMC; Pfizer, Groton, Conn.) (Best et al., 1995) either at onset of MCAO or 2 hours after MCAO, followed by two subsequent doses 6 and 12 hours later. In the first experiment, misoprostol was given at onset of MCAO, with the two subsequent injections given at 6 hours and at 12 hours post MCAO, and brains were analyzed 22.5 hours later. In the second experiment, treatment with the initial dose of misoprostol was delayed two hours after the onset of MCAO, and two subsequent doses were then administered at 8 hours and 14 hours after MCAO and brains were analyzed at 22.5 hours later. In the third experiment, a delayed time point was tested, and misoprostol was given 2 hours after MCAO and again at 6 and 12 hours; brains were examined at 72 hours. […] A fifth cohort of EP3−/− and +/+ mice underwent treatment with either vehicle or misoprostol at MCAO, with subsequent administration of misoprostol or vehicle at 6 and 12 hours post MCAO and brain examination 22.5 hours later.
compound,measurement,setting,value
CCCCC(C)(O)C/C=C/[C@H]1[C@H](O)CC(=O)[C@@H]1CCCCCCC(=O)OC (mixture of isomers) [misoprostol],Neurological scores,"1 mg/kg s.c. 2 h after MCAO, again at 6 and 12 h, 72 h, comparison value 2.6+/−0.24",1.0+/−0.22
same,Neurological scores,"1 mg/kg s.c. 2 h after MCAO, then at 8 and 14 h, 24 h, comparison value 2.6+/−0.3",1.7+/−0.3
same,Neurological scores,"1 mg/kg s.c. at onset of 90 min MCAO, then at 6 and 12 h, 24 h, comparison value 2.4+/−0.2",1.8+/−0.2
